From patent publication US8609688B2, “Substituted imidazopyridinyl-aminopyridine compounds” (ArQule, Inc., priority 2011, dated 2013)

Experiments:
Phospho-Akt (S473) = test: Cell ELISA Assay, Phospho-Akt detection; format: cell-based; settings: cells treated for 1 hour, cell line not stated
Description: Phospho-Akt detection analysis. Phospho-Akt (S473) was detected using cell ELISA. Briefly, cells were plated in a 96-well plate at 7,000-10,000 cells per well, cultured for 2-3 days in complete growth medium, and then treated with various drugs or combinations of drugs for 1 hour. The cells were fixed with ice-cold methanol, and washed with TBS supplemented with 1% H2O2. Phospho-Akt (S473) was probed with corresponding rabbit antibody as a primary antibody, and horseradish peroxidase conjugated goat anti-rabbit IgG. After treatment with SuperSignal® ELISA for 15 minutes, the detection was performed using a luminometer. Data were normalized to untreated controls and analyzed with Microsoft Excel.

[1] = molecular target: T1, Full-length inactive AKT1 (Homo sapiens (Human), UniProt P31749); test: Thermal Shift Assay (protein-ligand binding); settings: Kd at 25° C. calculated using constant ligand binding enthalpy −15 kcal/mol; 15 μM compound, ANS dye
T1 sequence (P31749 whole entry): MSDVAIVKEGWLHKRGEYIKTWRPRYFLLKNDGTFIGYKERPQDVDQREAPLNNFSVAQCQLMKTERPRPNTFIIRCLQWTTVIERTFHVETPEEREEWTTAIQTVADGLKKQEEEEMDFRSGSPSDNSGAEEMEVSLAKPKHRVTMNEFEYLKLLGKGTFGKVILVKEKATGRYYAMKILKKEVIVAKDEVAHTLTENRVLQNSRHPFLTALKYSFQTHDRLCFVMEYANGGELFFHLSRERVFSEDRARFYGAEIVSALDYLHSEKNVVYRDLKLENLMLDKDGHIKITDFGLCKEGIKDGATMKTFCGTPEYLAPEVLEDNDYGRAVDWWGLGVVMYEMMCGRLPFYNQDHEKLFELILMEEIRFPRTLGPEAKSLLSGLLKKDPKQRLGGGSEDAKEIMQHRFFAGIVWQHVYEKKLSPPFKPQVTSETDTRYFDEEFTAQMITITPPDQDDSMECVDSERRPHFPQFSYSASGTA
Description: Binding analysis. Protein-ligand binding was identified with the thermal shift assay which is based on the ligand-induced stabilization of the protein tertiary structure. The thermal stability of the ligand-Akt1 complex was assessed by subjecting the complex to a set temperature gradient and by comparison of the meltion temperature of the Akt1-ligand complex with the melting temperature of the protein alone. Protein unfolding was monitored by the fluorescence readout of an environmentally sensitive fluorescent dye, 1-anilinonaphthalene-8-sulfonic acid (ANS). […] The PCR plate was placed into a RT-PCR instrument and a temperature gradient was performed, increasing from 27 to 80° C., at 1° C./30 sec heat rate with a dwell time of 20 sec. The change in ANS fluorescence was measured using the filter set of 475 nm/525 nm excitation/emission.

cells = test: Cell proliferation / viability GI50 (MTS assay or ATP quantitation assay); format: cell-based; settings: 72 hours treatment; cell line and assay (MTS or ATP quantitation) not stated
Description: Cell proliferation analysis. Cell survival was determined by the MTS assay. Briefly, cells were plated in a 96-well plate at 2,000-10,000 cells per well, cultured for 24 hours in complete growth medium, and then treated with various drugs and drug combinations for 72 hours. MTS was added and incubated for 4 hour, followed by assessment of cell viability using the microplate reader at 570 nm. Data were normalized to untreated controls and analyzed with Microsoft Excel.
Cell viability analysis. Cell viability was determined by the ATP quantitation assay. Briefly, cells were plated in a 96-well plate at 2,000-10,000 cells per well, cultured for 24 hours in complete growth medium, and then treated with various drugs or combination of drugs for 72 hours. CellTiter-Glo® reagent was added and incubated at room temperature for 10 minutes, followed by assessment of cell viability using a luminometer. Data were normalized to untreated controls and analyzed with Microsoft Excel.

[2] = molecular target: T1, Full-length inactive AKT1; test: Inactive Akt Alpha Screen Assay; settings: 8 nM inactive Akt1 activated by PDK1 and MAPKAPK2, lipid vesicles, 50 μM ATP, biotinylated crosstide; read-out: Akt1 biochemical assay IC50 AlphaScreen crosstide
Description: AKT1 activity was assayed using the GSK3-derived biotinylated peptide substrate, crosstide (biotin-[…]), and AlphaScreen™ (Amplified Luminescent Proximity Homogeneous Assay) technology. AKT1 activation was achieved by the addition of the activating kinases PDK1 and MAPKAPK2, lipid vesicles, and ATP. The extent of peptide phosphorylation was determined using a phospho-AKT substrate antibody and acceptor beads conjugated to Protein A and donor beads conjugated to streptavidin that bind to the biotin on the peptide. Excitation of the donor beads converted ambient oxygen to excited singlet oxygen which, when in close proximity to acceptor beads, reacted with acceptor beads resulting in signal amplification.
After a 20 minute pre-incubation at room temperature, the kinase reaction was initiated by the addition of 5 μL of an activation mixture diluted in assay buffer containing biotinylated crosstide, PDK1, MAPKAPK2, DOPS/DOPC, PtdIns(3,4,5)P3, and ATP for final concentrations of 60 nM biotinylated crosstide, 0.1 nM PDK1, 0.7 nM MK2, 5.5 μM DOPS, 5.5 μM DOPC, 0.5 μM PtdIns(3,4,5)P3, and 50 μM ATP. The plates were incubated for 30 minutes at room temperature, and then stopped in the dark by the addition of 10 μL stop/detection mixture prepared in assay buffer containing EDTA, AlphaScreen™ Streptavidin Donor and Protein A Acceptor beads, and phospho-AKT substrate antibody for final concentrations of 10 mM EDTA, 500 ng/well of both AlphaScreen™ Streptavidin Donor beads and Protein A Acceptor beads, and phospho-AKT substrate antibody at a final dilution of 1:350. Assay plates were incubated for 90 minutes at room temperature in the dark, and the plates were read on a Perkin Elmer Envision Multilabel plate reader (excitation wavelength: 640 nm, emission wavelength: 570 nm). […]

Structure (SMILES)	IC50 (Phospho-Akt (S473))	Kd [1]	IC50 [2]	GI50 (cells)
Nc1ncccc1-c1nc2ccc(N3CCOCC3)nc2n1-c1ccc(C2(N)CCC2)cc1 [Cmpd 1, 3-(3-(4-(1-aminocyclobutyl)phenyl)-5-morpholino-3H-imidazo[4,5-b]pyridin-2-yl)pyridin-2-amine]	0.235 µM			
Nc1ncccc1-c1nc2ccc(-c3cccc(NC(=O)C4CC4)c3)nc2n1-c1ccc(C2(N)CCC2)cc1 [Cmpd 3, N-(3-(3-(4-(1-aminocyclobutyl)phenyl)-2-(2-aminopyridin-3-yl)-3H-imidazo[4,5-b]pyridin-5-yl)phenyl)cyclopropane-carboxamide]	0.029 µM	0.007 µM	0.00309 µM	444 µM
CC(C)(C)C(=O)Nc1cccc(-c2ccc3nc(-c4cccnc4N)n(-c4ccc(C5(N)CCC5)cc4)c3n2)c1 [Cmpd 4, N-(3-(3-(4-(1-aminocyclobutyl)phenyl)-2-(2-aminopyridin-3-yl)-3H-imidazo[4,5-b]pyridin-5-yl)phenyl)pivalamide]	0.017 µM	0.0004 µM	0.0017 µM	265 µM
CC(=O)OC(C)(C)C(=O)Nc1cccc(-c2ccc3nc(-c4cccnc4N)n(-c4ccc(C5(N)CCC5)cc4)c3n2)c1 [Cmpd 5, 1-((3-(3-(4-(1-aminocyclobutyl)phenyl)-2-(2-aminopyridin-3-yl)-3H-imidazo[4,5-b]pyridin-5-yl)phenyl)amino)-2-methyl-1-oxopropan-2-yl acetate]		0.0007 µM	0.00446 µM	
CC(C)(O)C(=O)Nc1cccc(-c2ccc3nc(-c4cccnc4N)n(-c4ccc(C5(N)CCC5)cc4)c3n2)c1 [Cmpd 6, N-(3-(3-(4-(1-aminocyclobutyl)phenyl)-2-(2-aminopyridin-3-yl)-3H-imidazo[4,5-b]pyridin-5-yl)phenyl)-2-hydroxy-2-methylpropanamide]		0.0014 µM	0.00163 µM	
C[C@H](O)CNC(=O)c1cccc(-c2ccc3nc(-c4cccnc4N)n(-c4ccc(C5(N)CCC5)cc4)c3n2)c1 [Cmpd 7, (S)-3-(3-(4-(1-aminocyclobutyl)phenyl)-2-(2-aminopyridin-3-yl)-3H-imidazo[4,5-b]pyridin-5-yl)-N-(2-hydroxypropyl)benzamide]	0.012 µM			836 µM
C[C@@H](O)CNC(=O)c1cccc(-c2ccc3nc(-c4cccnc4N)n(-c4ccc(C5(N)CCC5)cc4)c3n2)c1 [Cmpd 8, (R)-3-(3-(4-(1-aminocyclobutyl)phenyl)-2-(2-aminopyridin-3-yl)-3H-imidazo[4,5-b]pyridin-5-yl)-N-(2-hydroxypropyl)benzamide]	0.008 µM			1350 µM
CN(C)C(=O)C1CCN(c2cccc(-c3ccc4nc(-c5cccnc5N)n(-c5ccc(C6(N)CCC6)cc5)c4n3)c2)CC1 [Cmpd 9, 1-(3-(3-(4-(1-aminocyclobutyl)phenyl)-2-(2-aminopyridin-3-yl)-3H-imidazo[4,5-b]pyridin-5-yl)phenyl)-N,N-dimethylpiperidine-4-carboxamide]	0.0021 µM	0.0002 µM	0.00251 µM	
CCN(CC)C(=O)C1CCN(c2cccc(-c3ccc4nc(-c5cccnc5N)n(-c5ccc(C6(N)CCC6)cc5)c4n3)c2)CC1 [Cmpd 10, 1-(3-(3-(4-(1-aminocyclobutyl)phenyl)-2-(2-aminopyridin-3-yl)-3H-imidazo[4,5-b]pyridin-5-yl)phenyl)-N,N-diethylpiperidine-4-carboxamide]	0.003 µM	0.0002 µM	0.00415 µM	

Second part, led by results:

IC50 (Phospho-Akt (S473))	Kd [1]	IC50 [2]	Structure (SMILES)	GI50 (cells)
0.0017 µM	0.0002 µM	0.00336 µM	Nc1ncccc1-c1nc2ccc(-c3cccc(N4CCC(C(=O)N5CCOCC5)CC4)c3)nc2n1-c1ccc(C2(N)CCC2)cc1 [Cmpd 11, (1-(3-(3-(4-(1-aminocyclobutyl)phenyl)-2-(2-aminopyridin-3-yl)-3H-imidazo[4,5-b]pyridin-5-yl)phenyl)piperidin-4-yl)(morpholino)methanone]	
0.009 µM	0.0014 µM	0.00215 µM	CCC(=O)N1CCN(c2cccc(-c3ccc4nc(-c5cccnc5N)n(-c5ccc(C6(N)CCC6)cc5)c4n3)c2)CC1 [Cmpd 13, 1-(4-(3-(3-(4-(1-aminocyclobutyl)phenyl)-2-(2-aminopyridin-3-yl)-3H-imidazo[4,5-b]pyridin-5-yl)phenyl)piperazin-1-yl)propan-1-one]	335 µM
0.004 µM	0.0011 µM		CC(C)C(=O)N1CCN(c2cccc(-c3ccc4nc(-c5cccnc5N)n(-c5ccc(C6(N)CCC6)cc5)c4n3)c2)CC1 [Cmpd 15, 1-(4-(3-(3-(4-(1-aminocyclobutyl)phenyl)-2-(2-aminopyridin-3-yl)-3H-imidazo[4,5-b]pyridin-5-yl)phenyl)piperazin-1-yl)-2-methylpropan-1-one]	
	0.0017 µM	0.00342 µM	CC(C)(C)C(=O)N1CCN(c2cccc(-c3ccc4nc(-c5cccnc5N)n(-c5ccc(C6(N)CCC6)cc5)c4n3)c2)CC1 [Cmpd 16, 1-(4-(3-(3-(4-(1-aminocyclobutyl)phenyl)-2-(2-aminopyridin-3-yl)-3H-imidazo[4,5-b]pyridin-5-yl)phenyl)piperazin-1-yl)-2,2-dimethylpropan-1-one]	
	0.0031 µM	0.00436 µM	C[C@@H]1CN(c2cccc(-c3ccc4nc(-c5cccnc5N)n(-c5ccc(C6(N)CCC6)cc5)c4n3)c2)C[C@H](C)O1 [Cmpd 17, 3-(3-(4-(1-aminocyclobutyl)phenyl)-5-(3-((2S,6R)-2,6-dimethylmorpholino)phenyl)-3H-imidazo[4,5-b]pyridin-2-yl)pyridin-2-amine]	
	0.0008 µM	0.00179 µM	Nc1ncccc1-c1nc2ccc(-c3cccc(N4CCS(=O)(=O)CC4)c3)nc2n1-c1ccc(C2(N)CCC2)cc1 [Cmpd 18, 4-(3-(3-(4-(1-aminocyclobutyl)phenyl)-2-(2-aminopyridin-3-yl)-3H-imidazo[4,5-b]pyridin-5-yl)phenyl)thiomorpholine 1,1-dioxide]	
0.06 µM		0.00377 µM	Nc1ncccc1-c1nc2ccc(Nc3ccccc3)nc2n1-c1ccc(C2(N)CCC2)cc1 [Cmpd 19, 3-(4-(1-aminocyclobutyl)phenyl)-2-(2-aminopyridin-3-yl)-N-phenyl-3H-imidazo[4,5-b]pyridin-5-amine]	1420 µM
0.414 µM	0.0573 µM	0.00872 µM	Nc1ncccc1-c1nc2ccc(Nc3ccc(N4CCOCC4)cc3)nc2n1-c1ccc(C2(N)CCC2)cc1 [Cmpd 20, 3-(4-(1-aminocyclobutyl)phenyl)-2-(2-aminopyridin-3-yl)-N-(4-morpholinophenyl)-3H-imidazo[4,5-b]pyridin-5-amine]	
0.605 µM	0.11 µM		Nc1ncccc1-c1nc2ccc(Sc3ccccc3)nc2n1-c1ccc(C2(N)CCC2)cc1 [Cmpd 21, 3-(3-(4-(1-aminocyclobutyl)phenyl)-5-(phenylthio)-3H-imidazo[4,5-b]pyridin-2-yl)pyridin-2-amine]	
	0.0831 µM		Nc1ncccc1-c1nc2ccc(Oc3ccccc3)nc2n1-c1ccc(C2(N)CCC2)cc1 [Cmpd 22, 3-(3-(4-(1-aminocyclobutyl)phenyl)-5-phenoxy-3H-imidazo[4,5-b]pyridin-2-yl)pyridin-2-amine]	
